Experimental data as given in ChEMBL document CHEMBL4739716, “Gpr139 receptor modulators” (2020).

How the values were obtained:
[1] = target: T1, Probable G-protein coupled receptor 139 (Homo sapiens, UniProt Q6DWJ6); test: Agonist activity at human GPR139 expressed in CHO-K1 cells assessed as increase in calcium flux by calcium 5 dye based FLIPR assay; type: functional, cell-based
T1 sequence (Q6DWJ6 whole entry): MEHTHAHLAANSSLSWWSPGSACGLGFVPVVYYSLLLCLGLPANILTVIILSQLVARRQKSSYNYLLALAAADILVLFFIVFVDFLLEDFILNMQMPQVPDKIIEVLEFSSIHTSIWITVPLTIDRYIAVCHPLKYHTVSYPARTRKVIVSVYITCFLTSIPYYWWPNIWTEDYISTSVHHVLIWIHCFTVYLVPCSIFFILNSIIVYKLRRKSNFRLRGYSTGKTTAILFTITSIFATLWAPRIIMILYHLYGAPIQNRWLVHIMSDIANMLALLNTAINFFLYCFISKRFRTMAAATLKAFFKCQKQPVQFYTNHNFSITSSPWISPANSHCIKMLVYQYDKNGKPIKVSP

[2] = target: T2, Probable G-protein coupled receptor 139 (Homo sapiens) (UniProt Q6DWJ6); test: Agonist activity at human GPR139 expressed in CHO-K1 cells assessed as increase in calcium flux by calcium 5 dye based FLIPR assay relative to JNJ63533054; type: functional, cell-based; details: filed as agonist
T2 sequence (whole entry): T1 sequence (Q6DWJ6 whole entry)

[3] = target: T3, Probable G-protein coupled receptor 139 (Rattus norvegicus, UniProt P0C0W8); test: Agonist activity at rat GPR139 expressed in CHO-K1 cells assessed as increase in calcium flux by calcium 5 dye based FLIPR assay; type: cell-based
T3 sequence (P0C0W8 whole entry): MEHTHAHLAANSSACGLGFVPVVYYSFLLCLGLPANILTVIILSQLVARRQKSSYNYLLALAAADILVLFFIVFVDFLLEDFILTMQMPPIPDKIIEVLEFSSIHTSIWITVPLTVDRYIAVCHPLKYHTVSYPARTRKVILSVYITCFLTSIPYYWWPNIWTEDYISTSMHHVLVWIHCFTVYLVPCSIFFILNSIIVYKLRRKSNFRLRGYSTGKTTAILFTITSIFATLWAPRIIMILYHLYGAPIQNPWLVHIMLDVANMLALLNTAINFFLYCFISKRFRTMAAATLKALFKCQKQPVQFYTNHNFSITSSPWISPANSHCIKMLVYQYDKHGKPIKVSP

[4] = target: T4, Probable G-protein coupled receptor 139 (Rattus norvegicus) (UniProt P0C0W8); test: Agonist activity at rat GPR139 expressed in CHO-K1 cells assessed as increase in calcium flux by calcium 5 dye based FLIPR assay relative to JNJ63533054; type: cell-based
T4 sequence (whole entry): T3 sequence (P0C0W8 whole entry)

[5] = target: T1, Probable G-protein coupled receptor 139; test: Agonist activity at human GPR139 expressed in CHO-K1 cells assessed as induction of beta-arrestin 2 recruitment incubated for 90 mins by PathHunter assay; type: cell-based
[6] = target: T2, Probable G-protein coupled receptor 139 (Homo sapiens); test: Agonist activity at human GPR139 expressed in CHO-K1 cells assessed as induction of beta-arrestin 2 recruitment incubated for 90 mins by PathHunter assay relative to JNJ63533054; type: cell-based

SMILES | EC50 [1] | Emax [2] | EC50 [3] | Emax ([4]; filed as agonist) | EC50 ([5]; cho-k1) | Emax ([6]; filed as agonist) | EC50 [5] | Emax [6] | EC50 ([1]; cho-k1) | EC50 ([3]; cho-k1) | Emax [4]
COc1ccn2c(=O)n(CC(=O)N[C@@H](C)c3ccc(OC(F)(F)F)cc3)nc2c1 | < 1 nM | > 80% | < 1 nM | 50% | 1 nM | > 80% | – | – | – | – | –
C[C@H](NC(=O)Cn1nc2cc(N3CCN(C)CC3)ccn2c1=O)c1ccc(OC(F)(F)F)cc1 | ≥ 100 nM | 50% | ≥ 100 nM | 50% | – | – | ≥ 100 nM | 25% | – | – | –
Cc1ccc([C@H](C)NC(=O)Cn2nc3c(C4CCN(C)C4)cccn3c2=O)cc1 (stereo partly drawn) | ≥ 100 nM | 50% | ≥ 100 nM | – | – | – | ≥ 100 nM | 25% | – | – | 25%
C[C@H](NC(=O)Cn1nc2cc(N3CCCCC3)ccn2c1=O)c1ccc(OC(F)(F)F)cc1 | < 1 nM | 50% | < 1 nM | > 80% | – | > 80% | ≥ 100 nM | – | – | – | –
Cc1ccc([C@H](C)NC(=O)Cn2nc3c(NCC(F)F)cccn3c2=O)cc1 | < 1 nM | > 80% | < 1 nM | > 80% | – | 50% | < 1 nM | – | – | – | –
COc1cccn2c(=O)n(CC(=O)N[C@@H](C)c3ccc(C)cc3)nc12 | < 1 nM | > 80% | – | 50% | – | 50% | < 1 nM | – | – | 1 nM | –
Cc1ccc([C@H](C)NC(=O)Cn2nc3ccccn3c2=O)cc1Cl | < 1 nM | > 80% | – | > 80% | 1 nM | > 80% | – | – | – | 1 nM | –
C[C@H](NC(=O)Cn1nc2c(C(F)F)nccn2c1=O)c1ccc(OC(F)(F)F)cc1 | – | > 80% | ≥ 100 nM | 50% | – | – | < 1 nM | 25% | 1 nM | – | –
CNc1ccnn2c(=O)n(CC(=O)N[C@@H](C)c3ccc(OC(F)(F)F)cc3)nc12 | < 1 nM | > 80% | – | 50% | 10 nM | 50% | – | – | – | 1 nM | –
O=C(Cn1nc2cccnn2c1=O)NC1(c2cccc(Cl)c2)CC1 | ≥ 100 nM | 50% | ≥ 100 nM | 50% | – | – | ≥ 100 nM | < 25% | – | – | –
COc1cccc2nn(CC(=O)N[C@@H](C)c3ccc(Cl)cc3)c(=O)n12 | < 1 nM | 50% | – | 50% | 1 nM | 50% | – | – | – | 1 nM | –
C[C@H](NC(=O)Cn1nc2cc(Cl)cnn2c1=O)c1ccc(OC(F)(F)F)cc1 | – | > 80% | – | 50% | – | – | ≥ 100 nM | 25% | 1 nM | 1 nM | –
Cc1ccc([C@H](C)NC(=O)Cn2nc3ccc(F)cn3c2=O)cc1 | < 1 nM | > 80% | < 1 nM | > 80% | 10 nM | 50% | – | – | – | – | –
COc1cccc2nn(CC(=O)N[C@@H](C)c3ccc(OC(F)(F)F)cc3)c(=O)n12 | < 1 nM | > 80% | – | 50% | 1 nM | > 80% | – | – | – | 1 nM | –
C[C@H](NC(=O)Cn1nc2cc(N3CCC[C@H](O)C3)ccn2c1=O)c1ccc(OC(F)(F)F)cc1 | – | > 80% | – | > 80% | – | > 80% | ≥ 100 nM | – | 1 nM | 1 nM | –
C[C@H](NC(=O)Cn1nc2ncccn2c1=O)c1ccc(C2CC2)cc1 | ≥ 100 nM | 50% | ≥ 100 nM | – | – | – | ≥ 100 nM | < 25% | – | – | < 25%
C[C@H](NC(=O)Cn1nc2cccc(N3CCCCC3)n2c1=O)c1ccc(OC(F)(F)F)cc1 | < 1 nM | 50% | – | 50% | – | 50% | < 1 nM | – | – | 1 nM | –
Cc1cnc2nn(CC(=O)N[C@@H](C)c3ccc(OC(F)(F)F)cc3)c(=O)n2c1 | – | 50% | ≥ 100 nM | – | – | – | ≥ 100 nM | 25% | 1 nM | – | 25%

The remaining lines, values ahead:

EC50 [1] | Emax [2] | EC50 [3] | Emax ([4]; filed as agonist) | EC50 ([5]; cho-k1) | Emax ([6]; filed as agonist) | EC50 [5] | Emax [6] | EC50 ([1]; cho-k1) | EC50 ([3]; cho-k1) | Emax [4] | SMILES
– | 50% | – | 50% | – | – | ≥ 100 nM | < 25% | 1 nM | 1 nM | – | CC(C)[C@H](NC(=O)Cn1nc2cccnn2c1=O)c1ccc(Cl)c(F)c1
– | > 80% | – | > 80% | – | 50% | ≥ 100 nM | – | 1 nM | 1 nM | – | Cc1cc([C@H](C)NC(=O)Cn2nc3cccnn3c2=O)ccc1Cl
– | > 80% | < 1 nM | > 80% | 1 nM | > 80% | – | – | 1 nM | – | – | C[C@H](NC(=O)Cn1nc2ccccn2c1=O)c1ccc(Cl)c(F)c1
< 1 nM | > 80% | – | > 80% | 1 nM | > 80% | – | – | – | 1 nM | – | Cc1cc([C@H](C)NC(=O)Cn2nc3ccccn3c2=O)ccc1Cl
< 1 nM | > 80% | < 1 nM | > 80% | 1 nM | > 80% | – | – | – | – | – | COc1ccn2c(=O)n(CC(=O)N[C@@H](C)c3ccc(Cl)c(F)c3)nc2n1
– | > 80% | ≥ 100 nM | 50% | 1 nM | – | – | 25% | 1 nM | – | – | Cc1ccn2c(=O)n(CC(=O)N[C@@H](C)c3ccc(Cl)c(F)c3)nc2n1
– | > 80% | – | 50% | 10 nM | 50% | – | – | 1 nM | 1 nM | – | Cc1ccc([C@H](C)NC(=O)Cn2nc3ncccn3c2=O)cc1F
< 1 nM | > 80% | < 1 nM | > 80% | 10 nM | 50% | – | – | – | – | – | Cc1ccc2nn(CC(=O)N[C@@H](C)c3ccc(Cl)c(F)c3)c(=O)n2n1
– | > 80% | – | 50% | 10 nM | 50% | – | – | 1 nM | 1 nM | – | Cc1ccc([C@H](C)NC(=O)Cn2nc3cccnn3c2=O)cc1F
< 1 nM | > 80% | – | 50% | 1 nM | 50% | – | – | – | 10 nM | – | Cc1ccnc2nn(CC(=O)N[C@@H](C)c3ccc(Cl)c(F)c3)c(=O)n12
– | > 80% | – | 50% | 10 nM | 50% | – | – | 1 nM | 1 nM | – | C[C@H](NC(=O)[C@@H](C)n1nc2ncccn2c1=O)c1ccc(Cl)c(F)c1
< 1 nM | > 80% | < 1 nM | > 80% | 1 nM | > 80% | – | – | – | – | – | C[C@H](NC(=O)Cn1nc2ccc(F)cn2c1=O)c1ccc(Cl)c(F)c1
< 1 nM | > 80% | < 1 nM | > 80% | – | 50% | < 1 nM | – | – | – | – | Cc1cnn2c(=O)n(CC(=O)N[C@@H](C)c3ccc(Cl)c(F)c3)nc2c1C
– | > 80% | – | > 80% | – | > 80% | ≥ 100 nM | – | 1 nM | 10 nM | – | Cc1ccc([C@H](C)NC(=O)Cn2nc3ncccn3c2=O)cc1Cl
< 1 nM | > 80% | < 1 nM | 50% | 10 nM | 50% | – | – | – | – | – | C[C@H](NC(=O)Cn1nc2c(N3CCOCC3)cccn2c1=O)c1ccc(Cl)c(F)c1
